In patent publication US5759789A, “Prostaglandin receptor EP2” (Merck Frosst Canada, Inc., priority 1996, dated 1998):
Entries after “also recorded” stand apart in the source; their conditions may differ. Read-outs that look alike come from different tables or passages of the source. One block for each molecule: values may come before it.

How the values were obtained:
EP2 receptor [1] = target: T1, EP2 receptor (Homo sapiens, UniProt P35408); experiment: [3H]PGE2 binding (competition) assay, membranes of COS-M6 cells transfected with EP2; set-up: full-length human EP2 cDNA was isolated; This 1.958 kb cDNA clone encodes a 488-amino acid protein; expressed in transfected cells; host or cells: COS-M6 cells (pcDNAIamp plasmid, DEAE-dextran), 100,000 x g membrane fraction; conditions: for activity at EP2 in words / rank order of potency for prostaglandins and related analogs: competition with [3H]PGE2
T1 sequence (P35408 whole entry): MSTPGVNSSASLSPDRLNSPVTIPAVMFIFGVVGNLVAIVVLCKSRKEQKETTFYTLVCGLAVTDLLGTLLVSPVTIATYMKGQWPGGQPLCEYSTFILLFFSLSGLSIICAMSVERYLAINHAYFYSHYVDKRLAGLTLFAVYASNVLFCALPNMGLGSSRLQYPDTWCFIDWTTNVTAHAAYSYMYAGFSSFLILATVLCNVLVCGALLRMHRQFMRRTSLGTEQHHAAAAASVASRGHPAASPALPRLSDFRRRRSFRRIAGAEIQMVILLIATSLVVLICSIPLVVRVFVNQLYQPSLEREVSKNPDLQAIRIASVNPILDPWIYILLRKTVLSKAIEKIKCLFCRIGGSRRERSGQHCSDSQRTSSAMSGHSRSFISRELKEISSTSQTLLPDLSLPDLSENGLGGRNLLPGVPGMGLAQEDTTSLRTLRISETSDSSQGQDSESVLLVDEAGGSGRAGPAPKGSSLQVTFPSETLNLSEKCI
Description: The cells were maintained in culture for 72 h, then harvested and membranes prepared by differential centrifugation (1000×g for 10 min, then 100,000×g for 30 min) following lysis of the cells by nitrogen cavitation. […] Incubations were conducted for 45 min at 30° C. prior to separation of the bound and free radioligand by rapid filtration through Whatman GF/B filters presoaked at 4° C. in washing buffer ([…] MES/KOH (pH 6.0) containing 0.01% bovine serum albumin).

EP2 receptor [2] = target: T1, EP2 receptor; experiment: PGE2-induced CFTR-mediated Cl- current in Xenopus oocytes injected with EP2 plus CFTR cDNA; type: cell-based
Description: Oocytes were taken from adult females of Xenopus laevis using standard surgical procedure (Colman, A., 1984 In: Transcription and Translation--A Practical Approach, IRL Press). To remove follicle cells, oocytes were treated for 2-3 h with freshly made collagenase (2 mg/ml, type 2, Worthington Biochemical Corp., Freehold, N.J.) in Ca^2+ -free ND96 solution (ND96 in mM: NaCl 96, KCl 2, MgCl2 1, HEPES 5, Na-pyruvate 2.5, theophylline 0.5 gentamicin […], +1.8 CaCl2, pH 7.6). Defolliculated stage 5-6 oocytes were selected and maintained in ND96 solution. Oocyte nuclei were injected with 1.6 ng of pcDNAIamp-EP2 plus 2.5 ng of pcDNAIamp-CFTR and then incubated at 18° C. for 48 h before challenge with agonist. CFTR (cystic fibrosis transmembrane regulator, a cAMP dependent Cl^- channel) was co-expressed with EP2 receptor in these oocytes and served as a reporter of changes in intracellular cAMP levels. Functional activity was determined by measurement of PGE2-induced CFTR-mediated Cl^- current. An oocyte was placed in a 0.5 ml perfusion chamber and voltage clamped at -60 mV (with microelectrodes of 0.5-2.0 MW resistance filled with 3M KCl) using a Turbo TEC01C amplifier (NP1 Instruments, Germany). Ligand-containing solution was perfused and the current response was recorded.

[3] = test system: control oocytes (CFTR alone or CFTR plus antisense EP2 cDNA injected); experiment: CFTR-mediated Cl- current in control oocytes (CFTR alone or CFTR plus antisense EP2 cDNA injected); type: cell-based, Xenopus laevis
EP1 receptor = conditions: cited from earlier work
EP2 receptor [4] = conditions: cited from earlier work
EP3 receptor = conditions: cited from earlier work
EP2 receptor [5] = conditions: cited from earlier work; remark: listed apart in the source
TP receptor = conditions: cited from earlier work
IP receptor = conditions: cited from earlier work
[6] = CFTR alone or CFTR plus antisense EP2 cDNA injected

activity at EP2 in words (EP2 receptor [1]): relatively inactive | IC50 (EP2 receptor [1]; read-out: IC50): 30 µM
SMILES: CCCC1([C@H](O)C/C=C/[C@H]2[C@H](O)CC(=O)[C@@H]2CCCCCCC(=O)OC)CCC1 [butaprost]

SMILES: O=C(O)CCCC=CCC1C(=O)CC(O)C1C=CC(O)CCc1ccccc1 (stereo not drawn) [phenyl-trinor PGE2, 17-pheyyl-trinor PGE2]
rank order of potency for prostaglandins and related analogs (EP2 receptor [1]): PGE2=PGE1>>phenyl-trinor PGE2>iloprost>PGF2α >PGD2≈U46619

activity at EP2 in words (EP2 receptor [1]): essentially inactive
SMILES: CC(=O)NNC(=O)N1Cc2ccccc2Oc2ccc(Cl)cc21 [SC19220]

activity at EP2 in words (EP2 receptor [1]): essentially inactive
SMILES: CC(C)Oc1ccc2c(=O)c3cc(C(=O)O)ccc3oc2c1 [AH6809]

potency at EP2 relative to EP3 (fold less potent at EP2 than EP3) (EP2 receptor [1]; EP2 versus EP3): approximately 30 fold
SMILES: O=C(O)CCCCCC[C@H]1C(=O)CC[C@@H]1/C=C/[C@@H](O)COc1ccccc1 [MB28767]

current response compared with PGE2 (EP2 receptor [2]; 1 μM PGF2α): much smaller
SMILES: CCCCC[C@H](O)/C=C/[C@@H]1[C@@H](C/C=C\CCCC(=O)O)[C@@H](O)C[C@H]1O [PGF2α]
response of control oocytes [3, 6]: absent | rank order of potency for prostaglandins and related analogs (EP2 receptor [1]): PGE2=PGE1>>phenyl-trinor PGE2>iloprost>PGF2α >PGD2≈U46619

SMILES: CCCCC[C@H](O)/C=C/[C@H]1[C@H](O)CC(=O)[C@@H]1C/C=C\CCCC(=O)O [PGE2, prostaglandin E2]
current response (EP2 receptor [2]; perfusion of 1 nM, voltage clamp -60 mV, 1.6 ng EP2 plus 2.5 ng CFTR cDNA): inward cAMP-dependent Cl^- current; also recorded: prominent current responses | response of control oocytes ([3]; 1 μM, CFTR + anti-sense hEP2 cDNA): lack of response | response of control oocytes ([3]; 3 μM, CFTR + anti-sense hEP2 cDNA): lack of response | response of control oocytes [3, 6]: absent | affinity (EP1 receptor): high affinity | affinity (EP2 receptor [4]): high affinity | affinity (EP3 receptor): high affinity | intracellular cAMP levels (EP2 receptor [5]): increase in intracellular cAMP levels | rank order of potency for prostaglandins and related analogs (EP2 receptor [1]): PGE2=PGE1>>phenyl-trinor PGE2>iloprost>PGF2α >PGD2≈U46619

IC50 (EP2 receptor [1]; read-out: IC50 values in competition assays): 0.001 µM
SMILES: CCCCC[C@H](O)/C=C/[C@H]1[C@H](O)CC(=O)[C@@H]1CCCCCCC(=O)O [PGE1]
rank order of potency for prostaglandins and related analogs (EP2 receptor [1]): PGE2=PGE1>>phenyl-trinor PGE2>iloprost>PGF2α >PGD2≈U46619

IC50 (EP2 receptor [1]; read-out: IC50): 6.03 µM
SMILES: CCCCC(C)(O)C/C=C/[C@H]1[C@H](O)CC(=O)[C@@H]1CCCCCCC(=O)OC (mixture of isomers) [Misoprostol]

SMILES: CC(C)Cn1c(=O)n(C)c(=O)c2[nH]cnc21 [IBMX]
CFTR-mediated Cl- current ([3]; CFTR + anti-sense hEP2 cDNA injected oocytes): IBMX-induced, CFTR-mediated Cl^- current

SMILES: CCCCC[C@H](O)/C=C/[C@H]1C(=O)C[C@H](O)[C@@H]1C/C=C\CCCC(=O)O [PGD2]
rank order of potency for prostaglandins and related analogs (EP2 receptor [1]): PGE2=PGE1>>phenyl-trinor PGE2>iloprost>PGF2α >PGD2≈U46619

SMILES: CCCCC[C@H](O)/C=C/[C@@H]1[C@@H](C/C=C\CCCC(=O)O)[C@H]2CO[C@@H]1C2 [U46619]
potency at the TP receptor, stable thromboxane analog (TP receptor): comparable potency | rank order of potency for prostaglandins and related analogs (EP2 receptor [1]): PGE2=PGE1>>phenyl-trinor PGE2>iloprost>PGF2α >PGD2≈U46619

SMILES: CC#CCC(C)[C@H](O)/C=C/[C@@H]1[C@H]2C/C(=C/CCCC(=O)O)C[C@H]2C[C@H]1O (stereo partly drawn) [iloprost]
potency at the IP receptor, stable prostacyclin analog (IP receptor): comparable potency | rank order of potency for prostaglandins and related analogs (EP2 receptor [1]): PGE2=PGE1>>phenyl-trinor PGE2>iloprost>PGF2α >PGD2≈U46619
